Literature values in patent US6034286A, “Processes for producing saturated alcohols” (Union Carbide Chemicals & Plastics Technology Corporation, priority 1997, dated 2000).

Columns and labels:
[1] = Table II, promoter; approximate values
[2] = Table I, organophosphorus ligand

Row | SMILES | pKa [1] | pKb [2]
1 | N#CCC#N [CNCH2 CN] | 11 | 
2 | c1ccc(P(c2ccccc2)c2ccccc2)cc1 [Triphenylphosphine] |  | 2.74
